Assay results as given in patent US5914319A, “Antithrombotic agents” (Eli Lilly and Company, priority 1995, dated 1999).
Structures can show the parent of a compound that is named as a salt.

Assays:
[1] = early clinical studies, Simoons et al., Circulation, 90, I-231 (1994); cited from earlier work
[2] = Index of bioavailability (% Relative Activity from plasma TT time course); format: in vivo; conditions: dose-adjusted AUC of plasma TT time course, p.o. versus i.v. bolus
Method: Parke Davis) at 37° C. […] Assays are done in duplicate and averaged. […] Each sample population represented alternating sequential time points.

[3] = test system: Human plasma; assay: Human plasma anticoagulation, thrombin time (TT); format: biochemical; conditions: concentration required to double the thrombin time, linear extrapolation
Method in brief: (§1)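 Test compounds are added to human plasma at many concentrations. Clotting is then initiated by reagent (Thromboplastin-C for PT; Actin for 120 s followed by 0.02M calcium chloride for APTT; 10 NIH units/mL bovine thrombin for TT) and timed instrumentally. The concentration giving twofold prolongation is derived by linear extrapolation.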

[4] = test system: Human plasma; assay: Human plasma anticoagulation, activated partial thromboplastin time (APTT); format: biochemical; conditions: concentration required to double the APTT, linear extrapolation
Method in brief: as §1

[5] = biological target: T1, factor Xa (Homo sapiens, UniProt P00742); assay: Kass with other serine proteases: factor Xa; format: biochemical; conditions: substrate N-Benzoyl-Ile-Glu-Gly-Arg-p-nitroanilide
T1 construct: Human factors X, Xa, IXa, XIa, and XIIa are purchased; purchased Enzyme Research Laboratories, South Bend, Ind
T1 sequence (P00742 235-488 limits assumed): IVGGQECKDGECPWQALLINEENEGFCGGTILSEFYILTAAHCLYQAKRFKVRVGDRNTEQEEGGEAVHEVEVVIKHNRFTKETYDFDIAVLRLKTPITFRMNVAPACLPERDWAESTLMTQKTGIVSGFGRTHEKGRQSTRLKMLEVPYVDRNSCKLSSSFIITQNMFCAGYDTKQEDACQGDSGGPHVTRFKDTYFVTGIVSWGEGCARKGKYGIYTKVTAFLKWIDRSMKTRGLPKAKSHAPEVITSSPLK
T1 sequence (P00742 41-179 partner limits assumed): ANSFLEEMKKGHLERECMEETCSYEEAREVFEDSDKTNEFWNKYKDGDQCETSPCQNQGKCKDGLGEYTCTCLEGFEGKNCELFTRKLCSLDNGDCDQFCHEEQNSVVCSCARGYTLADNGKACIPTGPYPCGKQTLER

[6] = test system: Human plasma; assay: Human plasma anticoagulation, prothrombin time (PT); format: biochemical; conditions: concentration required to double the PT, linear extrapolation
Method in brief: as §1

[7] = biological target: T2, Human plasmin (Homo sapiens, UniProt P00747); assay: Kass with fibrinolytic system proteases: plasmin; format: biochemical; conditions: substrate H-D-Val-Leu-Lys-p-nitroanilide
T2 construct: Human plasmin is purchased from Boehringer Mannheim; purchased Boehringer Mannheim, Indianapolis, Ind
T2 sequence (P00747 581-810 limits assumed): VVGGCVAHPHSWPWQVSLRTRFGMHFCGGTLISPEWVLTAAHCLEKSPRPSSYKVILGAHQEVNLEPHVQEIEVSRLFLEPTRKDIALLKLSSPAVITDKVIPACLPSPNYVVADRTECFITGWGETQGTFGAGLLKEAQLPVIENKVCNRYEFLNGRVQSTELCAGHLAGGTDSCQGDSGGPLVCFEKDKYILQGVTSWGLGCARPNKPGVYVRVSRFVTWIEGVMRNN
T2 sequence (P00747 97-580 partner limits assumed): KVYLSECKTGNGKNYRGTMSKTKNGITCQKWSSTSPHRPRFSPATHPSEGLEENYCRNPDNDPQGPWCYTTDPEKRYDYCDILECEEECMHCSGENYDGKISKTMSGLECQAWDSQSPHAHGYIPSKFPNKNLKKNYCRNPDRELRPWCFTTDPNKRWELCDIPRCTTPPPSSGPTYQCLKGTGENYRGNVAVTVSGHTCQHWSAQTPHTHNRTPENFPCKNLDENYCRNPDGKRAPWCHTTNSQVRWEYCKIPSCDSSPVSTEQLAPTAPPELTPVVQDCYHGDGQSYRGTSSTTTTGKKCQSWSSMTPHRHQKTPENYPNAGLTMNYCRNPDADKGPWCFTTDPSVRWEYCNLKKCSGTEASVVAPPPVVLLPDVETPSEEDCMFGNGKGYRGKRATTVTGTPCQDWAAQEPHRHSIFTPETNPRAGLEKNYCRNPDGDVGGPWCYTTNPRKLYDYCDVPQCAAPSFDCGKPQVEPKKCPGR
Method: (§2) By substantially following the procedures described above for human thrombin, and using other human blood coagulation system serine proteases and proteases of the fibrinolytic system with the appropriate chromogenic substrates, identified below, selectivity of the compounds of the present invention with respect to the coagulation factor serine proteases and with respect to the fibrinolytic system serine proteases are evaluated as well as their substantial lack of interference with serine proteases of the fibrinolytic system. […] This would be important to the therapeutic use of such agents as an adjunct to streptokinase, t-PA or urokinase thrombolytic therapy and to the use of such agents as an endogenous fibrinolysis-sparing (with respect to t-PA and urokinase) antithrombotic agent. In addition to the lack of interference with the amidase activity of the fibrinolytic proteases, such fibrinolytic system sparing can be studied by the use of human plasma clots and their lysis by the respective fibrinolytic plasminogen activators.

[8] = biological target: T3, tissue plasminogen activator (t-PA) (Homo sapiens, UniProt P00750); assay: Kass with fibrinolytic system proteases: t-PA; format: biochemical; conditions: substrate H-D-Ile-Pro-Arg-p-nitroanilide
T3 construct: purchased American Diagnostica, Greenwich, Conn
T3 sequence (P00750 36-562): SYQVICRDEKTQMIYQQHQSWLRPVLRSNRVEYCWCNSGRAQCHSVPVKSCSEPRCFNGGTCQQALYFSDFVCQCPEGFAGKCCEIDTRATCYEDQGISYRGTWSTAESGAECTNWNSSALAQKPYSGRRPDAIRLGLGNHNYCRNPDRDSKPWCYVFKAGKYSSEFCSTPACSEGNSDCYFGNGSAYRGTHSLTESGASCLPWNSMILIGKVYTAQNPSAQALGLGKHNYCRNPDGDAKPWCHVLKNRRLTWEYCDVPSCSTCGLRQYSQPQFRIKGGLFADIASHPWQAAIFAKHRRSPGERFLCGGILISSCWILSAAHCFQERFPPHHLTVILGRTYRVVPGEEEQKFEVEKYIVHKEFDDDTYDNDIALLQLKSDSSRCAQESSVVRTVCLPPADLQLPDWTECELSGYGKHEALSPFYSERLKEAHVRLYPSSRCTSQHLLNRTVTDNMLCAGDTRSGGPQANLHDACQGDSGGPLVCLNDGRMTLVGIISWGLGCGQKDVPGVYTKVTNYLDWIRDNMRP
Method: as §2

[9] = biological target: T4, Bovine trypsin (Bos taurus, UniProt P00760); assay: Kass with other serine proteases: trypsin; format: biochemical; conditions: substrate N-Benzoyl-Phe-Val-Arg-p-nitroanilide
T4 construct: Bovine trypsin is purchased from Worthington Biochemicals; purchased Worthington Biochemicals, Freehold, N.J
T4 sequence (P00760 24-246): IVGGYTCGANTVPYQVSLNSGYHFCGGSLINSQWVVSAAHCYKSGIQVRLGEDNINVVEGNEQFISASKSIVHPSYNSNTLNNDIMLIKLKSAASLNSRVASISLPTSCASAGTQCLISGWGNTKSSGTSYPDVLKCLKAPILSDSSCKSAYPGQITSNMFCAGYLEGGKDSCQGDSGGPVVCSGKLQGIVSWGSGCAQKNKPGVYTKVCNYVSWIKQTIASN

[10] = biological target: human thrombin (Homo sapiens, UniProt P00734); assay: Inhibition of the amidase activity of thrombin (Kass); format: biochemical; conditions: mean over a range of test compound concentrations; […]

Kass × 10^6 (L/mole) Xa [5] | Kass × 10^6 (L/mole) Plasmin [7] | Kass × 10^6 (L/mole) t-PA [8] | Kass × 10^6 (L/mole) Trypsin [9] | Kass × 10^6 (L/mole) Human Thrombin [10] | Structure (SMILES) | anticoagulant in man [1] | % oral/i.v. activity (Rat) [2] | Human Plasma Anticoagulation 2× Clotting time (ng/mL) TT [3] | Human Plasma Anticoagulation 2× Clotting time (ng/mL) APTT [4] | Human Plasma Anticoagulation 2× Clotting time (ng/mL) PT [6]
 |  |  |  |  | CN[C@H](Cc1ccccc1)C(=O)N1CCC[C@H]1C(=O)N[C@H](C=O)CCCNC(=N)N.O=S(=O)(O)O [D-MePhe-Pro-Arg-H sulfate] | anticoagulant in man |  |  |  | 
 |  |  |  |  | CCS(=O)(=O)N[C@H](Cc1ccccc1)C(=O)N1CCC[C@H]1C(=O)NCCCCN=C(N)N.Cl [Example 1, EtSO2 -D-Phe-Pro-Agm.HCl] |  | 8% | 250 ng/mL |  | 
5.5 × 10^6 L/mole | 0.43 × 10^6 L/mole | 0.05 × 10^6 L/mole | 250. × 10^6 L/mole | 4,100 × 10^6 L/mole | N=C(N)c1ccc(CNC(=O)[C@@H]2CCCN2C(=O)[C@@H](CC2CCCCC2)NCC(=O)O)cc1 [Example 48, HOOCCH2 -D-Cha-Pro-p-NHCH2 C6 H4 C(NH)NH2.HCl] |  |  | 2. ng/mL | 33 ng/mL | 59 ng/mL
